From PMC11249637, “Interaction of the Atypical Tetracyclines Chelocardin and Amidochelocardin with Renal Drug Transporters” (ACS Pharmacology & Translational Science, 2024)

Key:
[1] = biological target: T1, mOat2 (Mus musculus, UniProt Q91WU2); test: Two-point inhibition of mOat2-mediated cGMP uptake in transfected HEK293 cells; assay type: in vitro ADME; conditions: cGMP 10 μM, 5 min, read-out: inhibitory effect on mOat2
T1 construct: expressed in transfected cells; host or cells: HEK293
T1 sequence (Q91WU2 1-540): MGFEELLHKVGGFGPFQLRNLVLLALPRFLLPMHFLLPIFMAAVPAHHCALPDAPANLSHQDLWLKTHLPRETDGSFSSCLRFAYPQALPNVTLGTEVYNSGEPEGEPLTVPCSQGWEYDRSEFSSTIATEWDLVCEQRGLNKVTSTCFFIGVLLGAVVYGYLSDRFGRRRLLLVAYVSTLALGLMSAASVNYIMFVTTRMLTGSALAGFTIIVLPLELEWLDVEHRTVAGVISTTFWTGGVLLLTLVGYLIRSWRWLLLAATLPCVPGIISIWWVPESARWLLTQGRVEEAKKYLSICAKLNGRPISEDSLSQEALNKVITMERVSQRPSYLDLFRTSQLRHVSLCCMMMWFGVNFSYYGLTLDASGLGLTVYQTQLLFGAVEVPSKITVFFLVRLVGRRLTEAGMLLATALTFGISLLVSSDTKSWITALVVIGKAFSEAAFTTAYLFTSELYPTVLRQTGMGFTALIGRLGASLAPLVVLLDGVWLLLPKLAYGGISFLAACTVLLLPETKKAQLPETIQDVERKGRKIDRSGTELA
Experimental: Well-characterized mOct1-, mOct2-, mOat1-, mOat2-, mOat3-, mMate1-, hOAT1-, hOAT3-, hOAT4-, hMRP2-, mMdr1a- and mMdr1b-transfected HEK293 cells and the respective vector-transfected control HEK293 cells were used.[42],[51],[52] All HEK293 cells (transporter-transfected and vector-transfected) were cultured in DMEM (Sigma, high glucose, 10% FBS, 1% penicillin (10,000 Units/mL)/streptomycin (10 mg/mL)) at 37°C under 5% CO2 in humidified atmosphere. The cells were routinely checked for the absence of mycoplasma infection. For the preparation of HEK293 cell monolayers, 24-well plates were pretreated with a poly-D-lysine hydrobromide solution (0.1 mg/mL). […]
For the uptake assay, the growth medium was aspirated, and each well was rinsed three times with 0.5 mL of incubation buffer (HBSS supplemented with 20 mM HEPES, pH 7.4) and incubated for 20 min at 37 °C. […] Cells were solubilized with 0.6 mL of 1N NaOH overnight and transferred into scintillation vials. ^3H and ^14C contents were measured after the addition of 2.5 mL of scintillator in a liquid scintillation counter.
The cellular protein amount was determined in parallel for each cell line (vector- and transporter-transfected) from six wells in a different 24-well reference plate using the Bradford method. […]
(§1) The inhibitory effect (I(%)) was calculated according to the formula: [drawing 5] […]

[2] = test system: uropathogenic E. coli; parameters: method as in PMID 38047701; conditions: cited from earlier work
[3] = biological target: T2, hOAT4 (Homo sapiens, UniProt Q9NSA0); test: Two-point inhibition of hOAT4-mediated ES uptake in transfected HEK293 cells; assay type: in vitro ADME; conditions: ES 1 μM, 1 min; for inhibitory effect on hOAT4 (in words): 1 and 10 μM; for enhanced uptake of substrate by hOAT4: at 10 μM
T2 construct: expressed in transfected cells; host or cells: HEK293
T2 sequence (Q9NSA0 1-550): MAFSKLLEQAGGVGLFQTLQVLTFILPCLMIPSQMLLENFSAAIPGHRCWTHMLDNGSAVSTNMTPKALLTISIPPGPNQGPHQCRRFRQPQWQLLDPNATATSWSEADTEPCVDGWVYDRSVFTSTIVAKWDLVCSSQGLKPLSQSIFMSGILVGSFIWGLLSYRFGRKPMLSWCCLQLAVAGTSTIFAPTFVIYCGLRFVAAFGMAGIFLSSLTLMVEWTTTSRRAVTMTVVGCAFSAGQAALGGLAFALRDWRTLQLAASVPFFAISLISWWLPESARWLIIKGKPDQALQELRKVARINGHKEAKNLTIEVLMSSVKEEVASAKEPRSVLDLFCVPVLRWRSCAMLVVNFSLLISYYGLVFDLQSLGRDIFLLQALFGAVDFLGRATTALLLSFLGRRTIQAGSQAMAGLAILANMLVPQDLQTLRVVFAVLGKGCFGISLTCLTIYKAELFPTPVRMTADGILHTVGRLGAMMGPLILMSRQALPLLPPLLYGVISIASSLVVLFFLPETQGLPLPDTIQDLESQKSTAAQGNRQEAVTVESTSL
Experimental: Well-characterized mOct1-, mOct2-, mOat1-, mOat2-, mOat3-, mMate1-, hOAT1-, hOAT3-, hOAT4-, hMRP2-, mMdr1a- and mMdr1b-transfected HEK293 cells and the respective vector-transfected control HEK293 cells were used.[42],[51],[52] All HEK293 cells (transporter-transfected and vector-transfected) were cultured in DMEM (Sigma, high glucose, 10% FBS, 1% penicillin (10,000 Units/mL)/streptomycin (10 mg/mL)) at 37°C under 5% CO2 in humidified atmosphere. The cells were routinely checked for the absence of mycoplasma infection. For the preparation of HEK293 cell monolayers, 24-well plates were pretreated with a poly-D-lysine hydrobromide solution (0.1 mg/mL). Each well was coated with 0.5 mL of poly-D-lysine solution and incubated for at least 15 min. After complete removal of the solution, the plates were dried for 30 min. Cells (vector-transfected and transporter-transfected) treated with trypsin were immediately seeded into 24-well plates and cultured for 3 days before being used for transport experiments.
For the uptake assay, the growth medium was aspirated, and each well was rinsed three times with 0.5 mL of incubation buffer (HBSS supplemented with 20 mM HEPES, pH 7.4) and incubated for 20 min at 37 °C. Afterward, buffers were removed, and 200 μL of the incubation buffer containing a radiolabeled substrate and the nonlabeled CHD and CDCHD or reference inhibitor (Table S1), respectively, was added to each well and incubated at 37 °C for designated time intervals. After incubation, uptake was terminated by aspirating the reaction mixture and washing the cells three times with 0.4 mL of ice-cold incubation buffer. Cells were solubilized with 0.6 mL of 1N NaOH overnight and transferred into scintillation vials. ^3H and ^14C contents were measured after the addition of 2.5 mL of scintillator in a liquid scintillation counter.
The cellular protein amount was determined in parallel for each cell line (vector- and transporter-transfected) from six wells in a different 24-well reference plate using the Bradford method. For the two-point inhibition assays, each, CHD and CDCHD, was added in two single concentrations of 1 and 10 μM to characterize their inhibitory potential. Incubation was terminated after 1 min. All experiments were conducted in triplicate for every transporter.
The ES incubation buffer contained ^3H-ES and nonlabeled ES in a final concentration of 1 μM. Inhibition of hOAT4-mediated ES uptake by 10 μM BSP was performed as a control experiment.
as §1

Structure (SMILES): Cc1ccc2c(C)c3c(c(O)c2c1O)C(=O)[C@@]1(O)C(=O)C(C(N)=O)=C(O)[C@@H](N)[C@H]1C3 [CDCHD, amidochelocardin]
- inhibition at 10 µM [1]: ~100%
- effect in ascending urinary tract infection model (in words) [2]: pronounced effects
- inhibitory effect on hOAT4 (in words) [3]: No inhibitory effect
- enhanced uptake of substrate by hOAT4 [3]: up to 40%

Structure (SMILES): CC(=O)C1=C(O)[C@@H](N)[C@H]2Cc3c(c(O)c4c(O)c(C)ccc4c3C)C(=O)[C@@]2(O)C1=O [CHD, chelocardin]
- inhibition at 10 µM [1]: ~100%
- effect in ascending urinary tract infection model (in words) [2]: pronounced effects
- inhibitory effect on hOAT4 (in words) [3]: No inhibitory effect
- enhanced uptake of substrate by hOAT4 [3]: up to 40%
